Test results as given in patent publication US9594084B2, “Phosphorylation of histones and uses thereof” (H. LEE MOFFITT CANCER CENTER AND RESEARCH INSTITUTE, priority 2012, dated 2017).

Columns and labels:
[1] = system: NPAT and RNA polymerase II at Site II; experiment: ChIP-qPCR with NPAT or RNA Pol II antibodies at Site II in synchronized MEFs; format: cell-based, mouse; details: 6.30 hours post-release
Protocol: FIG. 3B-3F are graphs showing histone RNA (relative to actin) in wildtype (WT) and Y40A mutant yeast cells treated with α-factor for 3 hours, washed and harvested at indicated time points post-release. Total RNA was prepared followed by qRT-PCR for histones transcripts. FACS analysis of yeast cells was performed to determine exit of cells from […] (0 minutes) and entry into cell cycle. Data are representative of three independent experiments. The p values for 30 minutes are as follows: #p=0.024; ##p=0.008; ###p=0.0083; ####p=0.037. FIG. 3G to 3H are graphs showing ChIP (% input DNA) in synchronized MEFs treated with WEE1 inhibitor or untreated and harvested 6.30 hours post-release. ChIP was performed using NPAT and IgG antibodies (FIG. 3G) or RNA Pol II and IgG (FIG. 3H) followed by qPCR using primers corresponding to Site II. *p=0.0018, **p=0.01. FIG. 3I is an immunoblot showing total histones prepared from synchronized WT (first three columns) and Y40A mutant yeast cells (last three columns) 0, 20, and 30 minutes post release that were immunoprecipitated with pTyr37-H2B antibodies and immunoblotted with yeast H2B antibodies (upper panel) or yeast tubulin antibodies (bottom panel). […]
To understand the potential mechanism of repression of histone transcription the role of NPAT was assessed. […]

WEE1 [2] = target: T1, WEE1 (Homo sapiens, UniProt P30291); experiment: Peptide Immunosandwich Assay (PIA) with purified WEE1; format: biochemical; design: GST; purchased Invitrogen; details: purified WEE1 protein (100 ng), 5 uM
Protocol: H2B Tyr37-phosphorylation was determined as described in the text.
(§1) In brief, Streptavidin coated 96-well plates (R&D systems) were incubated with biotinylated human histone H2B derived peptides […] (SEQ ID NO: 62, Y37 site is underlined). H2B derived phospho-peptide KRSRKESp[…] (SEQ ID NO: 63) was used as positive control. Any unbound areas on the plate were blocked with 3% BSA. Next, purified WEE1 protein (100 ng) prepared in kinase buffer (20 mM HEPES, 225 mM NaCl, 1% Triton X-100, 10% glycerol, phosphatase and protease inhibitors) supplemented with 1 uM ATP and 1 uM MgCl2. After 2 hours of incubation, plates were washed with phosphate buffered saline containing 0.1% Tween 20 (PBST) and reblocked in 3% BSA. The pY37-H2B or pTyr antibodies (at 1:1000 dilution) were added and incubated for 1 hour. Unbound antibodies were washed and HRP-conjugated anti-mouse secondary antibodies (1:5000) were added. The magnitude of phosphorylation was detected using developer solution (OPD tablets, Sigma) and after 20 minutes of incubation, the plates were read at 450 nm.
The Peptide Immunosandwich Assay was first validated using purified WEE1 protein (100 ng) and cancer derived cell lines (50 ug). […] PIA was also validated using cancer derived cells lines MDA-MB231 (low WEE1 activity) and LAPC4 cells (high WEE1 activity). […] As negative controls, H2B peptide alone or WEE1 enzyme alone were used. […]

WEE1 [3] = target: T1, WEE1; experiment: Peptide Immunosandwich Assay (PIA) with GBM tumor lysates; format: biochemical; details: 100 ug of lysates, 10 uM for 30 minutes
Protocol: Threshold interval is shown.
as §1
To assess the WEE1 epigenetic activity in GBM patients, lysates were prepared from 8 GBM tumor biopsies and 3 normal brain samples as a control. The lysates were quantitated and 100 ug of lysates was used per reaction. Each reaction was performed in triplicates. […]

5-hmC levels = experiment: Slot blot of genomic DNA with 5-hmC and 5-mC antibodies; format: cell-based
Protocol: SBC12, T98G and HEK293 cells were treated with WEE1 inhibitor, MK1775 (0.6 μM, 24 hr). Blots were incubated with 5-hmC and 5-mC antibodies.
Genomic DNA was isolated, blotted by slot blot, followed by immunoblotting with 5-hmC and 5-mC antibodies. […] 5-hmC containing plasmid DNA (Zymo research) was used as positive control.

[4] = system: pY37-H2B epigenetic marks within IDH2; experiment: Directed ChIP-PCR of pY37-H2B marks in IDH2 coding region, synchronized MEFs; format: cell-based, mouse
[5] = system: cancers and cancer cell lines; details: cited from earlier work

T1 sequence (P30291 whole entry): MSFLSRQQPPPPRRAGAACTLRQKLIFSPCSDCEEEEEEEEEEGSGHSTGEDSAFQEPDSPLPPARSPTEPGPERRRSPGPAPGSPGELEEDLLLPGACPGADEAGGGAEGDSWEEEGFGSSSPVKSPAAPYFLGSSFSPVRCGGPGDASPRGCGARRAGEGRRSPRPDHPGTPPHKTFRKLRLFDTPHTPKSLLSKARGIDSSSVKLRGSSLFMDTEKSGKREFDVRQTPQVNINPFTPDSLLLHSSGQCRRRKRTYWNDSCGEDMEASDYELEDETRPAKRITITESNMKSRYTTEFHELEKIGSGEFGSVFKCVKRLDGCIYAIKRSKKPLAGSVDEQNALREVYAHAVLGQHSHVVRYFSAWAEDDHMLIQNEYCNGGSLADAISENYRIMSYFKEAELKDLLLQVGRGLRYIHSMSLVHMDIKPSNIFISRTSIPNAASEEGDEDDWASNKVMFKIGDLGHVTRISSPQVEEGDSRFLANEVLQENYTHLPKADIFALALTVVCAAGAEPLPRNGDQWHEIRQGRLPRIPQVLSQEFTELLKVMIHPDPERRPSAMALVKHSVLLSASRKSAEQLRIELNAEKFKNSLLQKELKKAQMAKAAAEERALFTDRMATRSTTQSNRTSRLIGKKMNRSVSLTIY

C=CCn1c(=O)c2cnc(Nc3ccc(N4CCN(C)CC4)cc3)nc2n1-c1cccc(C(C)(C)O)n1 [MK-1775]
recruitment of NPAT at Site II [1]: binding was detected | recruitment of RNA polymerase II at Site II [1]: binding was detected | pY37-H2B levels (WEE1 [2]): significant decrease | WEE1 activity in GBM tumor lysates (WEE1 [3]): significantly reduced | 5-hmC levels (5-hmC levels; HEK293 cells, 0.6 μM, 24 hr): remained unchanged | 5-hmC levels (5-hmC levels; SBC12 melanoma derived cell line, 0.6 μM, 24 hr): significant upregulation | 5-hmC levels (5-hmC levels; T98G GBM-derived cells, 0.6 μM, 24 hr): significant upregulation | 5-mC levels (5-hmC levels; immunoblotting with 5-mC antibodies, 0.6 μM, 24 hr): concomitant decrease | 5-hmC levels (5-hmC levels; summary statement): restored | deposition of pY37-H2B epigenetic marks in the IDH2 coding region [4]: abolished | sensitization to DNA damaging agents such as gemcitabine, 5-fluorouracil [5]: able to sensitize
